Measured values as given in ChEMBL document CHEMBL1124283, “1,4-Dihydropyridine antagonist activities at the calcium channel: a quantitative structure-activity relationship approach” (J Med Chem, 1988).

Legend:
Cavia porcellus = organism: Cavia porcellus; experiment: Effective concentration required to produce mechanical response determined in muscle strips of guinea pig; format: functional; details: Muscle tissue, read-out: Log 1/EC50 (converted)
[1] = Compound was tested for its antagonist activity against calcium channel; format: functional, Homo sapiens

| EC50 (Cavia porcellus) [µM] | Log 1/IC50 [1] | Structure (SMILES) |
| --- | --- | --- |
| 0.11 | 7.28 | COC(=O)C1=C(C)N=C(C)/C(=C(\O)OC)C1c1cccc(C)c1 (stereo not drawn) |
| 0.0347 | 8.68 | COC(=O)C1=C(C)N=C(C)/C(=C(\O)OC)C1c1cccc(C#N)c1 (stereo not drawn) |
| – | 7.18 | COC(=O)C1=C(C)N=C(C)/C(=C(\O)OC)C1c1ccc(C)cc1 (stereo not drawn) |
| 0.00759 | 8.37 | COC(=O)C1=C(C)N=C(C)/C(=C(/O)OC)C1c1c(F)cccc1Cl (stereo not drawn) |
| 0.0209 | 8.49 | COC(=O)C1=C(C)N=C(C)/C(=C(\O)OC)C1c1cccc(F)c1 (stereo not drawn) |
| 0.0933 | – | COC(=O)C1=C(C)N=C(C)/C(=C(\O)OC)C1c1cc(Cl)cc(Cl)c1 (stereo not drawn) |
| 0.891 | – | COC(=O)C1=C(C)N=C(C)/C(=C(\O)OC)C1c1cccc(N(C)C)c1 (stereo not drawn) |
| 0.191 | 7.27 | COC(=O)C1=C(C)N=C(C)/C(=C(\O)OC)C1c1cccc(OC)c1 (stereo not drawn) |
| 50.1 | < 5 | COC(=O)C1=C(C)N=C(C)/C(=C(\O)OC)C1c1cccc([N+](C)(C)C)c1 (stereo not drawn) |
| 0.129 | 7.46 | COC(=O)C1=C(C)N=C(C)/C(=C(\O)OC)C1c1ccc(F)cc1 (stereo not drawn) |
| 1 | – | COC(=O)C1=C(C)N=C(C)/C(=C(\O)OC)C1c1cccc(O)c1 (stereo not drawn) |
| 0.00129 | – | COC(=O)C1=C(C)N=C(C)/C(=C(\O)OC)C1c1cccc(Br)c1 (stereo not drawn) |
| 0.0158 | 9.3 | COC(=O)C1=C(C)N=C(C)/C(=C(/O)OC)C1c1cccc(Cl)c1 (stereo not drawn) |
| 0.0741 | – | COC(=O)C1=C(C)N=C(C)/C(=C(\O)OC)C1c1cccc(C(F)(F)F)c1 (stereo not drawn) |
| 8.13 | 6.22 | COC(=O)C1=C(C)N=C(C)/C(=C(\O)OC)C1c1ccc(Cl)cc1 (stereo not drawn) |
| 6.03 | – | COC(=O)C1=C(C)N=C(C)/C(=C(\O)OC)C1c1cccc(OC(C)=O)c1 (stereo not drawn) |
| 22.9 | – | COC(=O)C1=C(C)N=C(C)/C(=C(\O)OC)C1c1ccc(I)cc1 (stereo not drawn) |
| – | 8.67 | COC(=O)C1=C(C)N=C(C)/C(=C(\O)OC)C1c1cccc(N=[N+]=[N-])c1 (stereo not drawn) |
| 0.00191 | – | COC(=O)C1=C(C)N=C(C)/C(=C(\O)OC)C1c1c(Cl)cccc1Cl (stereo not drawn) |
| 0.00219 | 9.78 | COC(=O)C1=C(C)N=C(C)/C(=C(\O)OC)C1c1ccccc1Cl (stereo not drawn) |
| 2 | – | COC(=O)C1=C(C)N=C(C)/C(=C(\O)OC)C1c1cccc(N)c1 (stereo not drawn) |
| 0.0417 | – | COC(=O)C1=C(C)N=C(C)/C(=C(\O)OC)C1c1cccc(I)c1 (stereo not drawn) |
| 0.00759 | 10.49 | COC(=O)C1=C(C)N=C(C)/C(=C(\O)OC)C1c1ccccc1Br (stereo not drawn) |
| 39.8 | – | COC(=O)C1=C(C)N=C(C)/C(=C(\O)OC)C1c1ccccc1N (stereo not drawn) |
| 0.0191 | – | COC(=O)C1=C(C)N=C(C)/C(=C(\O)OC)C1c1cccc(Cl)c1Cl (stereo not drawn) |

More lines, now with the values behind:

| Structure (SMILES) | EC50 (Cavia porcellus) [µM] | Log 1/IC50 [1] |
| --- | --- | --- |
| COC(=O)C1=C(C)NC(C)=C(C(=O)OC)C1c1ccc(N(C)C)cc1 | 100 | – |
| COC(=O)C1=C(C)NC(C)=C(C(=O)OC)C1c1ccccc1 | 0.0282 | 7.85 |
| COC(=O)C1=C(C)N=C(C)/C(=C(\O)OC)C1c1c(F)c(F)c(F)c(F)c1F (stereo not drawn) | 0.00437 | 10.37 |
| COC(=O)C1=C(C)N=C(C)/C(=C(\O)OC)C1c1ccccc1I (stereo not drawn) | 0.0468 | 10.8 |
| COC(=O)C1=C(C)N=C(C)/C(=C(\O)OC)C1c1ccccc1C#N (stereo not drawn) | 0.0158 | 9.18 |
| COC(=O)C1=C(C)N=C(C)/C(=C(\O)OC)C1c1cccc(OC(=O)c2ccccc2)c1 (stereo not drawn) | 6.31 | – |
| COC(=O)C1=C(C)N=C(C)/C(=C(\O)OC)C1c1cc([N+](=O)[O-])ccc1O (stereo not drawn) | 0.1 | – |
| COC(=O)C1=C(C)N=C(C)/C(=C(\O)OC)C1c1ccccc1OC (stereo not drawn) | 0.0575 | 7.87 |
| COC(=O)C1=C(C)N=C(C)/C(=C(\O)OC)C1c1cc(OC)c(OC)cc1OC (stereo not drawn) | 1000 | – |
| COC(=O)C1=C(C)N=C(C)/C(=C(\O)OC)C1c1ccccc1F (stereo not drawn) | 0.0427 | 8.44 |
| C=Cc1ccccc1C1C(C(=O)OC)=C(C)N=C(C)/C1=C(\O)OC (stereo not drawn) | 0.00447 | – |
| COC(=O)C1=C(C)N=C(C)/C(=C(\O)OC)C1c1cc([N+](=O)[O-])ccc1Cl (stereo not drawn) | 0.0302 | – |
| COC(=O)C1=C(C)N=C(C)/C(=C(\O)OC)C1c1ccc(C#N)cc1 (stereo not drawn) | 3.47 | – |
| CCc1ccccc1C1C(C(=O)OC)=C(C)N=C(C)/C1=C(\O)OC (stereo not drawn) | 0.00646 | – |
| COC(=O)C1=C(C)N=C(C)/C(=C(\O)OC)C1c1ccccc1C (stereo not drawn) | 0.00603 | 8.71 |
| CCOc1ccccc1C1C(C(=O)OC)=C(C)N=C(C)/C1=C(\O)OC (stereo not drawn) | 0.11 | – |
| COC(=O)C1=C(C)N=C(C)/C(=C(\O)OC)C1c1ccccc1C(F)(F)F (stereo not drawn) | 0.00151 | – |
| COC(=O)C1=C(C)N=C(C)/C(=C(\O)OC)C1c1cc(C)ccc1C (stereo not drawn) | 0.1 | – |
| COC(=O)C1=C(C)NC(C)=C(C(=O)OC)C1c1ccccc1[N+](=O)[O-] [NIFEDIPINE] | 0.00513 | 9.08 |
